Assay: method code SF-AS, from Mauleón, D.; Pujol, M.; Rosell, G. (1988). B-Adrenergic antagonists: N-alkyl and N-amidoethyl (arylalkoxy)propanolamines related to propranolol. Eur J Med Chem, 23, 421-426.

logP	SMILES
2.51	CC(C)(C)NCC(O)COCCc1ccccc1 (stereo unspecified)
1.7	CC(C)(C)NCC(O)COCc1ccccc1 (stereo unspecified)
1.25	CC(C)C(=O)NCCNCC(O)COCCCc1ccccc1 (stereo unspecified)
0.48	CC(C)C(=O)NCCNCC(O)COCCOc1ccccc1 (stereo unspecified)
1.63	CC(C)NCC(O)COCCOc1ccccc1 (stereo unspecified)
0.95	CC(C)C(=O)NCCNCC(O)COCCc1ccccc1 (stereo unspecified)
1.24	O=C(Cc1ccccc1)NCCNCC(O)COCCc1ccccc1 (stereo unspecified)
2.35	CC(C)(C)NCC(O)COCCOc1ccccc1 (stereo unspecified)
0.63	O=C(Cc1ccccc1)NCCNCC(O)COc1ccccc1 (stereo unspecified)
0.75	O=C(Cc1ccccc1)NCCNCC(O)COCCOc1ccccc1 (stereo unspecified)
0.63	CC(C)C(=O)NCCNCC(O)COCc1ccccc1 (stereo unspecified)
0.51	CC(C)C(=O)NCCNCC(O)COCC=Cc1ccccc1 (stereo unspecified)
3.55	CC(C)(C)NCC(O)COC1CCCc2ccccc21 (stereo unspecified)
1.99	CC(C)C(=O)NCCNCC(O)COC1CCCc2ccccc21 (stereo unspecified)
1.68	O=C(Cc1ccccc1)NCCNCC(O)COC1CCCc2ccccc21 (stereo unspecified)
1.5	CC(C)(C)NCC(O)COc1ccccc1 (stereo unspecified)
2.15	CC(C)NCC(O)COC/C=C/c1ccccc1 (stereo unspecified)
1.05	O=C(Cc1ccccc1)NCCNCC(O)COCc1ccccc1 (stereo unspecified)
1.14	CC(C)C(=O)NCCNCC(O)COc1ccccc1 (stereo unspecified)
2.95	CC(C)NCC(O)COCCCC(C)c1ccccc1 (stereo unspecified)
2.29	CC(CCCOCC(O)CNC(C)(C)C)c1ccccc1 (stereo unspecified)
1.76	CC(C)NCC(O)COCCc1ccccc1 (stereo unspecified)
3.42	CC(C)NCC(O)COC1CCCc2ccccc21 (stereo unspecified)
1.62	CC(C)NCC(O)COCc1ccccc1 (stereo unspecified)
1.76	O=C(Cc1ccccc1)NCCNCC(O)COCC=Cc1ccccc1 (stereo unspecified)
1.54	CC(C)NCC(O)COCCCc1ccccc1 (stereo unspecified)
